Assay results published in PMC10096842, “Identification of Flavone Derivative Displaying a 4′-Aminophenoxy Moiety as Potential Selective Anticancer Agent in NSCLC Tumor Cells” (Molecules, 2023).
One block for each compound: values may come before it.

How the values were obtained:
[1] = LogP determination (1-octanol/PBS partition, UV-vis); assay type: physicochemical; conditions: for logP: 1-octanol/PBS, pH 7.4, 1-octanol/PBS pH 7.4, read-out: Experimental LogP
Method: LogP was determined as previously described. Briefly, solutions of each APF were prepared in 1-octanol, and UV-vis spectra were acquired to determine the λmax. After having placed 2.5 mL of each solution in 10 mL conical centrifuge tubes, PBS was added (2.5 mL, pH 7.4) and the biphasic system was mixed using a vortex mixer (VELP Scientifica, Usmate Velate MB, Italy) followed by centrifugation (2000× g, 5 min). Then, the octanol phase absorption was measured at λmax. The partition coefficient Ko/w was calculated according to the following equation:Ko/w = [APF]oct/[APF]PBS = […] where Ai is the initial measured absorbance in octanol, pre-extraction, and Af is the final measured absorbance in octanol, post-extraction.

[2] = system: human dermal fibroblasts (HDF); experiment: MTT cell viability assay, HDF; assay type: cell-based; conditions: Fibroblast, 72 h
Method: (§1) The human non-small cell lung cancer (NSCLC) and Human Dermal Fibroblasts (HDF) cell lines were all obtained from the American Type Culture Collection (ATCC). The H1975 (CRL-5908™) cell line was grown in RPMI 1640 medium (ECB2000) while the A549 (CCL-185™) and HDF were grown in complete DMEM medium (ECM0095) All cultures were supplemented with 10% fetal bovine serum (FBS), 2 mM L-glutamine, 100 U/mL penicillin, and 100 µg/mL streptomycin,. All cell lines were routinely maintained in 75 cm^2 flasks in a cell incubator at 37 °C, 5% CO2, and 95% relative humidity. The cell cultures were detached by trypsinization with 0.5% trypsin in PBS containing 0.025% EDTA. All cell culture reagents were supplied by Euroclone (Milan, Italy).
(§2) The number of metabolically active cells, and thus cell viability, was assessed by a 3-(4,5-dimethylthiazol-2-yl)-2,5-diphenyltetrazolium bromide (MTT) assay as previously described. The NSCLC cell lines (A549 and H1975) and HDF were seeded in 96-well plates to reach 50% confluence at 24 h; then, the medium was removed and replaced with 0.2 mL of fresh culture medium containing increasing compound concentrations (0–160 µM). After 72 h, the medium from each well was removed and replaced with fresh medium supplemented with MTT at a final concentration of 200 µg/mL. After incubation for 4 h at 37 °C, 0.2 mL of DMSO was added to each well followed by multiwell shaking for 4 min. The absorbance was read on a multiwell scanning microplate reader (BioTek Synergy HT MicroPlate Reader Spectrophotometer, BioTek Instruments Inc., Winooski, VT, USA) at 570 nm using the extraction buffer as a blank. The optical density in the control group (untreated cells) was considered as 100% viability. The relative cell viability (%) was calculated as (OD570 of treated samples/OD570 of untreated samples) × 100. Dose-dependent curves were therefore generated for the cytotoxic studies. The 50% inhibiting concentration (IC50) was determined by non-linear regression analysis with a three-parameter fit by utilizing SigmaPlot 12.0 Software, USA, Systat Software, Inc. SigmaPlot for Windows. Each experiment was performed at least five times in triplicate.

A549 NSCLC cells = experiment: MTT cell viability assay, A549; assay type: cell-based, human; conditions: for IC50: A549, 72 h, MTT; for SI (Selectivity Index): IC50 HDF / IC50 A549
Method: as §1, §2

H1975 NSCLC cells = experiment: MTT cell viability assay, H1975; assay type: cell-based, human; conditions: for IC50: H1975, 72 h, MTT; for SI (Selectivity Index): IC50 HDF / IC50 H1975
Method: as §1, §2

H1975 cells [3] = experiment: Annexin V-FITC/PI apoptosis flow cytometry, H1975; assay type: cell-based, human
Method: (§3) Apoptosis was analyzed by flow cytometry using an Annexin V-FITC apoptosis detection kit (Biolegend, San Diego, CA, USA), according to the manufacturer’s instructions. A549, H1975, and HDF cells were treated with […] concentrations of APF-1 (1.5 and 3 µM). […] Briefly, control and treated cells were trypsinized, washed twice with ice-cold PBS, and resuspended in 1X Annexin binding buffer at a final concentration of 1.0 × 10^6 cell/mL. A total of 5 µL Annexin V-FITC and 10 µL Propidium Iodide (PI) were added to the cell suspension and the mixture was incubated for 15 min at rt in the dark. Samples were analyzed using the Guava EasyCyte flow cytometer (Merk-Millipore, Louis Missouri, USA). A total of 5000 events were acquired for each sample. Annexin V-FITC was detected as a green fluorescence (λex = 488 nm; λem = 516 nm) and PI was detected as a red fluorescence (λex = 535 nm; λem = 617 nm). Early apoptosis is defined by Annexin V+/PI− staining, late apoptosis is defined by Annexin V+/PI+ staining, and necrosis is defined by Annexin V−/PI+ staining.

A549 cells [4] = experiment: Annexin V-FITC/PI apoptosis flow cytometry, A549; assay type: cell-based, human
Method: as §3

[5] = Annexin V-FITC/PI apoptosis flow cytometry, HDF; assay type: cell-based, human; conditions: human, HDF cells, HDF, 24 h, read-out: live/viable (Annexin V−PI−) cells
Method: as §3

HDF cells [6] = experiment: Annexin V-FITC/PI apoptosis flow cytometry, HDF; assay type: cell-based, human
Method: as §3

H1975 cells [7] = experiment: Cell cycle analysis (PI, flow cytometry), H1975; assay type: cell-based, human; conditions: H1975, 3 µM, 24 h
Method: (§4) Cell cycle analyses were performed by using a Guava easyCyte flow cytometer (Merk-Millipore, MA, USA) and the DNA content was determined by propidium iodide (PI) method as previously described. Briefly, A549, H1975, and HDF were treated with APF-1 at 1.5 and 3 µM concentrations for 24 h. Cells were harvested, washed twice with cold PBS, and fixed with 70% ice-cold ethanol and kept at […] for 2 h. The fixed cells were centrifugated at 4 °C and suspended in a master mix solution containing PBS, PI (40 µg/mL), and RNase (100 µg/mL) for 30 min at 37 °C in the dark. Samples were run through the Guava easyCyte flow cytometer set to internal cell cycle analysis protocol and 5000 cells per sample were measured. The percentage of cell cycle phases (G0/G1, S, and G2/M) was quantified using MultiCycle AV Cell Cycle in FCS Express 7 software (DeNovo Software, Pasadena, CA, USA). The experiment was performed three times in triplicate.

A549 cells [8] = experiment: Cell cycle analysis (PI, flow cytometry), A549; assay type: cell-based, human; conditions: 24 h
Method: as §4

HDF cells [9] = experiment: Cell cycle analysis (PI, flow cytometry), HDF; assay type: cell-based, human; conditions: 1.5 and 3 µM, 24 h
Method: as §4

[10] = system: p21^waf1/cip1 protein level in A549 cells; experiment: Western blot of p21 expression, A549; assay type: cell-based, human; conditions: A549, higher APF-1 concentration (3 µM), 24 h
Method: (§5) Analysis of cell extracts (20 µg total proteins) was performed using SDS-PAGE 12% (Bio-Rad Laboratories, Hercules, CA, USA). Electrophoresis was carried out under reducing conditions, where uniformly negatively charged proteins move according to their mass. The proteins were then transferred to a PVDF membrane using the Trans-Blot Turbo instrument (Bio-Rad Laboratories, USA), after which the membrane was blocked with Every Blot Blocking Buffer (Bio-Rad Laboratories, USA). P21 protein levels were analyzed by Western blotting using a specific rabbit monoclonal primary antibody that specifically recognizes p21 protein (ab109199, Cambridge, MA, USA), and a secondary antibody anti-rabbit HRP (TA130023, OriGene Technologies, Rockville, MD 20850, USA) and detected by chemiluminescence using the Chemidoc device (Bio-Rad Laboratories, USA). […] GADPH protein levels were analyzed by Western blotting using a specific rabbit monoclonal primary antibody that specifically recognizes this protein (ARC0205, catalog number MA535235, Thermo Scientific, Waltham, MA, USA) and secondary antibody anti-rabbit HRP (TA130023, OriGene Technologies, Rockville, MD 20850, USA), also in this case detected by chemiluminescence with the Chemidoc instrument (Bio-Rad Laboratories, USA).

[11] = system: p21^waf1/cip1 protein level in H1975 cells; experiment: Western blot of p21 expression, H1975; assay type: cell-based, human; conditions: 24 h
Method: as §5

[12] = system: p21 expression in HDF cell line; experiment: Western blot of p21 expression, HDF; assay type: cell-based, human; conditions: APF-1 treatment, 24 h
Method: as §5

logP [1]: 3.2 ± 0.1
IC50 (A549 NSCLC cells): 4.2 ± 0.4 µM
IC50 (A549 NSCLC cells; Homo sapiens): 4 µM
IC50 (H1975 NSCLC cells): 2.3 ± 0.2 µM
IC50 (H1975 NSCLC cells; Homo sapiens, NCI-H1975, 72 h): 2 µM
SMILES: Nc1ccc(Oc2ccc3oc(-c4cccc(Oc5ccccc5)c4)cc(=O)c3c2)cc1 [APF-1]
IC50 [2]: 62 ± 6 µM
SI (Selectivity Index) (A549 NSCLC cells): 16
SI increase compared with doxorubicin (H1975 NSCLC cells; H1975): ~ 4.5 fold
early apoptotic (Annexin V+PI−) cells (H1975 cells [3]; H1975, 1.5 µM, 24 h): 16%
late apoptotic (Annexin V+PI+) cells (H1975 cells [3]; H1975, 1.5 µM, 24 h): 11%
increase of early apoptosis compared to untreated cells (H1975 cells [3]; H1975, 3 µM, 24 h): 2.6 fold
increase of late apoptosis compared to untreated cells (H1975 cells [3]; H1975, 3 µM, 24 h): 6.5 fold
viability at 1.5 µM (H1975 cells [3]; Homo sapiens, NCI-H1975, 24 h, H1975, 1.5 µM, 24 h, read-out: live/viable (Annexin V−PI−) cells): 70.9%
viability at 3 µM (H1975 cells [3]; Homo sapiens, NCI-H1975, 24 h, H1975, 3 µM, 24 h, read-out: live/viable (Annexin V−PI−) cells): 46%
induction of apoptosis (sum of early and late apoptosis) with respect to untreated cells (H1975 cells [3]; cancer cells (H1975), Figure 3D): about 4 times
increase in early apoptosis with respect to untreated cells (A549 cells [4]; A549, 3 µM, 24 h): 2 fold
viability at 1.5 µM (A549 cells [4]; Homo sapiens, A549, 24 h, A549, 1.5 µM, 24 h, read-out: live/viable (Annexin V−PI−) cells): 86%
viability at 3 µM (A549 cells [4]; Homo sapiens, A549, 24 h, A549, 3 µM, 24 h, read-out: live/viable (Annexin V−PI−) cells): 73%
induction of apoptosis (sum of early and late apoptosis) with respect to untreated cells (A549 cells [4]; cancer cells (A549), Figure 3D): about 4 times
viability at 24 h, 1.5 µM ([5]; 1.5 µM): 92%
viability at 24 h, 3 µM ([5]; 3 µM): 86%
effect on the number of late apoptotic cells (HDF cells [6]; HDF, 1.5 and 3 µM, 24 h): did not detect any effect
increase in early apoptosis (HDF cells [6]; HDF, highest APF-1 concentration (3 µM), 24 h): 4.7 fold
induction of apoptosis (sum of early and late apoptosis) compared with cancer cells (HDF cells [6]; fibroblasts, Figure 3D): lower
cells in G0/G1 phase (H1975 cells [7]): 24%
cells in G2/M phase (H1975 cells [7]): 70%
cells in S phase (H1975 cells [7]): 5.6%
increase in G2/M phase population compared to untreated cells (H1975 cells [7]): 2 fold
increase in G2/M phase compared to the untreated cells (A549 cells [8]; A549, 1.5 µM): 2.8 fold
cells in G2/M phase (A549 cells [8]; A549, 3 µM): 75%
effect on cell cycle profile (HDF cells [9]): not affected
increase in p21^waf1/cip1 expression with respect to untreated cells [10]: 1.5 fold
increase in p21 level with respect to untreated cells ([11]; H1975, 1.5 µM): 3 fold
increase in p21 level with respect to untreated cells ([11]; H1975, 3 µM): 3 fold
change in p21 expression [12]: did not observe any significant change

Experimental LogP ([1]; 1-octanol/PBS pH 7.4): 2.1 ± 0.3
logP [1]: 2.3
IC50 (A549 NSCLC cells; Homo sapiens): 22 ± 3 µM
IC50 (H1975 NSCLC cells; Homo sapiens, NCI-H1975, 72 h): 50 ± 5 µM
SMILES: Nc1ccc(Oc2ccc3oc(-c4ccccc4)cc(=O)c3c2)cc1 [APF-2, 6-(4-aminophenoxy)-2-(phenyl)-4H-chromen-4-one]
IC50 [2]: > 160 µM
SI (Selectivity Index) (A549 NSCLC cells): >8
SI (Selectivity Index) (H1975 NSCLC cells): >3

logP [1]: 3.3 ± 0.2
IC50 (A549 NSCLC cells; Homo sapiens): 33 ± 2 µM
IC50 (H1975 NSCLC cells; Homo sapiens, NCI-H1975, 72 h): 40 ± 4 µM
SMILES: Nc1ccc(Oc2ccc3c(=O)cc(-c4cccc(Oc5ccccc5)c4)oc3c2)cc1 [APF-3, 7-(4-aminophenoxy)-2-(3′-phenoxy)phenyl-4H-chromen-4-one]
IC50 [2]: 80 ± 3 µM
SI (Selectivity Index) (A549 NSCLC cells): 2
SI (Selectivity Index) (H1975 NSCLC cells): 2
